This test has as its target EGFR kinase domain (Homo sapiens, UniProt P00533). In words: SPR. The format is binding.

The term pKd denotes the Kd on a negative log10 scale, so that one unit is a factor of ten. Read a high pKd as a small Kd.

pKd: −log10 of the molar value.

Chain of EGFR kinase domain (P00533 704-1016): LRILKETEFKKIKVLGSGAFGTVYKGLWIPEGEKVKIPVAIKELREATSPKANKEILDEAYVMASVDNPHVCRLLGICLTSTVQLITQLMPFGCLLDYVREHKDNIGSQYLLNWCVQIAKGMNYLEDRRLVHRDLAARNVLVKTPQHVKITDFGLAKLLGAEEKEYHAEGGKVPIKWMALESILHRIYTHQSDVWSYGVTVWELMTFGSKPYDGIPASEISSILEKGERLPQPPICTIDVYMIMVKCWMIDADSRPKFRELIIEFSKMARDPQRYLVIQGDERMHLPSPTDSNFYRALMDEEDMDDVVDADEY

Compound `COc1ccc(CCn2c(=O)c3cc4c(cc3c3ccccc32)OCO4)cc1` [Z5, ZYH005] had a pKd of 4.71.
